# Reference: patent US10501511B2, “Low molecular polypeptide for preventing and treating inflammation and use thereof” (SHANGHAI FIRST PEOPLE'S HOSPITAL, priority 2013, dated 2019)
# Where a SMILES comes first, the peptide text is derived from it.
# Columns and labels:
# [1] = test system: TNF-α in LPS-induced RAW264.7 cells; test: TNF-α concentration (ELISA) in supernatant of LPS-induced RAW264.7 cells; type: cell-based, murine; conditions: for TNF-α: Samples 10 μM, Control (LPS) 1425.60; for concentration of TNF-α in cell supernatant: LPS group 1333.00±476.59, control 561.00±25.65
# Procedure: (§1) 1.1 Experimental cell strain and Materials: murine peritoneal macrophage cell strain RAW264.7 were purchased from the Cell Bank of Shanghai Institutes for Biological Sciences, CAS; DMEM high glucose medium was purchased from GIBCO; mouse tumor necrosis factor-α (TNF-α) and interleukin-6 (IL-6) enzyme-linked immunosorbent assay (ELISA) kits were purchased from R & D company, US.
# (§2) 1.2 Model establishment and Intervention test: RAW264.7 cells were cultured in high glucose DMEM medium containing 10% fetal bovine serum (FBS), and 100 U/ml double antibiotics of penicillin and streptomycin, and placed in 37° C., 5% CO2 incubator for amplification. Cells at Logarithmic growth phase were seeded in 24-well plates at 2.5×10^5/ml. When adhered cells grew well and were cultured to 80-90% of confluence, the medium was replaced by a DMEM medium without 10% FBS for serum-starved culture for 24 hours. RAW264.7 cells were randomly divided into control group, LPS group, LPS+H-RN group with sextuplicate wells for each group. LPS group and LPS+H-RN group were added with 500 μl of different concentrations of H-RN (1, 10, 100 μM) and LPS (100 ng/ml) and the control group was added with an equal volume of DMEM medium, each group was placed in 37° C., 5% CO2 incubator and routinely cultured. Cell supernatants were collected after 24 hours.
# (§3) The experiment data was shown as x±s. SPSS 11.0 statistical package was used for statistic analysis and one-way ANOVA was used to compare TNF-α and IL-6 level in supernatant between the groups, and P<0.05 represents statistical significance.
# [2] = test system: IL-6 in LPS-induced RAW264.7 cells; test: IL-6 concentration (ELISA) in supernatant of LPS-induced RAW264.7 cells; type: cell-based, murine; conditions: for IL-6: Samples 10 μM, Control (LPS) 2713.95; for concentration of IL-6 in cell supernatant: LPS group 2650.00±106.07, control 213.00±15.56
# Procedure: as §1, §2, §3
# [3] = test system: Rat Endotoxin-induced Uveitis (EIU) model; test: Clinical manifestation score in rat endotoxin-induced uveitis (EIU) model; type: in vivo, Wistar rats; conditions: 10 μl into vitreous chamber, 24 hours, score 0-4
# Procedure: (§4) 1.1 Experiment animals and materials: healthy male Wistar rats, 140-180 g, 8-10 weeks old, were purchased from Animal Center of Chinese Academy of Medical Sciences; Lipopolysaccharides (LPS), derived from Escherichia coli, was purchased from SIGMA-Aldrich Corporation (U.S.A).
# (§5) 1.2 Model establishment and Intervention test: Wistar rats were randomly divided into six groups (9-15 rats for each group) which were LPS group, LPS+1 μg/μl H-RN intervention group, LPS+5 μg/μl H-RN group, LPS+10 μg/μl H-RN group, LPS+10 μg/μl DXM and normal control group (PBS) respectively. 200 μg LPS (2 mg/ml, 100 μl, dissolved in sterile saline) was subcutaneously injected into right foot pad of rats, thereby establishing EIU model. The normal control group was subcutaneously injected with 100 μl sterile saline into the right foot pad of rats. In LPS group, LPS+H-RN (1, 5, 10 μg/μl) intervention group and LPS+10 μg/μl DXM group, each rat was subcutaneously injected with 200 μg LPS into the right foot pad, meanwhile, PBS 10 μl, H-RN PBS solution (1, 5 and 10 μg/μl) 10 μl and DXM PBS solution (10 μg/μl) 10 μl were injected into vitreous chamber respectively.
# 1.3 Qualitative observation for Clinical manifestations of EIU rats: 24 hours after drug and LPS intervention, rats were observed by biological microscope. The clinical manifestations of rats were evaluated and scored by an independent observer according to the method of Behar-Cohen et al. The severity of EIU was represented by 0-4 scores: 0: no inflammation; 1: mild dilation in conjunctiva and iris vessel; 2: moderate dilation in conjunctiva and iris vessel with anterior chamber flare; 3: severe iris hyperemia with severe anterior chamber flare; 4: anterior chamber cellulose-like exudation, posterior synechia, miosis and hypopyon in addition to 3 points.
# (§6) The experiment data was shown as x±s. A one-way ANOVA was used to compare the change of inflammatory cell infiltration of rats in each group. P<0.05 represents statistical significance.
# [4] = test system: Rat Endotoxin-induced Uveitis (EIU) model; test: Count of inflammatory cell infiltration in aqueous humor of EIU rats; type: in vivo, Wistar rats; conditions: 24 hours, LPS group 164.20±142.7
# Procedure: as §4, §5
# 1.4 Quantitative count for inflammatory cell infiltration in rat aqueous humor: 24 hours after LPS and drug intervention, rats were sacrificed in excess of anesthesia. Under an operating microscope, aqueous humor (30-40 μl/binoculus) was collected by anterior chamber paracentesis with a 30-gauge microsyringe at 1 mm from rat corneal limbus. Aqueous humor samples were diluted with an equal amount of trypan blue dye liquid. Cells in aqueous humor were counted using a hemocytometer under light microscopy by two independent technicians for each region (equivalent with 0.1 μl). The average of the four regions was the number of cells contained in 1 μl aqueous humor.
# as §6
# [5] = Cytotoxicity assay (MTS colorimetric method), relative growth rate; type: cell-based, murine; conditions: mouse, RAW264.7 macrophage cells, 24 hours, MTS, blank 100.05±3.95%, read-out: relative growth rate (RGR) of cells
# Procedure: (§7) 1.1 Experimental cell strain and Materials: murine peritoneal macrophage cell line RAW264.7 were purchased from the Cell Bank of Shanghai Institutes for Biological Sciences, CAS; DMEM high glucose medium were purchased from GIBCO; MTS were purchased from Promega, prepared into 300 mmol/L in PBS (pH 6.0) and stored at −20° C. in darkness.
# (§8) 1.2 Model establishment and Intervention test: RAW264.7 cells were cultured in high glucose DMEM medium containing 10% fetal bovine serum (FBS), and 100 U/ml double antibiotics of penicillin and streptomycin, and placed in 37° C., 5% CO2 incubator for amplification. Cells at logarithmic growth phase were seeded in 96-well plates at 1×10^5/ml. When adhered cells grew well and were cultured to 80-90% of confluence, the medium was replaced by a DMEM medium without 10% FBS for serum-starved culture for 24 hours.
# (§9) 1.3 Cytotoxicity assay (MTS colorimetric method): After the cells were cultured for 24 hours in serum starvation, different concentrations of H-RN (0.1, 1, 10 μM, 100 μM, 1 mM, 100 μl) were added into each well with sextuplicate wells for each concentration. The blank control group was added with an equal volume of DMEM medium. The plates were placed in 37° C., 5% CO2 incubator and cultured for 24 hours, added with 20 μl of MTS solution to each well and cultured for another 4 hours. The absorbance of each well was measured by an enzyme-linked immunosorbent detector in 490 nm, and the relative growth rate (RGR) of cells was calculated. Formula: RGR=A value of experimental group/A value of control group×100%.
# (§10) 1.5. Statistic analysis: The experiment data was shown as x±s. SPSS 11.0 statistical package was used for statistic analysis and one-way ANOVA was used to compare RGR of cells between the groups, and P<0.05 represents statistical significance.
# [6] = test system: RAW264.7 cells; test: as above; type: cell-based, murine; conditions: concentration range of 0.1 μm-1 mM
# Procedure: as §7, §8, §9, §10
# [7] = Water solubility of synthesized polypeptide powder; type: physicochemical; conditions: white powder
# [8] = LPS + 10 μg/μl peptide, LPS group 3.56±0.51
# [9] = LPS + 10 μg/μl peptide intravitreal
# [10] = 1 μM peptide + LPS 100 ng/ml, 24 hours, P>0.05
# [11] = 10 μM peptide + LPS 100 ng/ml, 24 hours
# [12] = 100 μM peptide + LPS 100 ng/ml, 24 hours
molecule,measurement,setting,value
"QNPRGDEPGPW [Derived polypeptide 4, polypeptide derived from H-RN]",TNF-α,[1],765.92 pg/mL
same,IL-6,[2],1411.87 pg/mL
"RNPRGEEGGPWCF [Derived polypeptide 6, polypeptide derived from H-RN]",TNF-α,[1],696.77 pg/mL
same,IL-6,[2],1369.41 pg/mL
"RNPRPEEGGAY [Derived polypeptide 3, polypeptide derived from H-RN]",TNF-α,[1],792.31 pg/mL
same,IL-6,[2],1402.54 pg/mL
"N=C(N)NCCC[C@H](NC(=O)[C@@H]1CCCN1C(=O)[C@H](CC(N)=O)NC(=O)[C@@H](N)CCCNC(=N)N)C(=O)NCC(=O)N[C@@H](CCC(=O)O)C(=O)N[C@@H](CCC(=O)O)C(=O)NCC(=O)NCC(=O)N1CCC[C@H]1C(=O)N[C@@H](Cc1c[nH]c2ccccc12)C(=O)O [H-RN, RNPRGEEGGPW] (H-RNPRGEEGGPW-OH; N-terminus assumed)",EIU clinical score,"[3]; LPS + 1 μg/μl H-RN, LPS group 3.56±0.51, normal control 0.50±0.54",2.42±0.53
same,EIU clinical score,"[3]; LPS + 5 μg/μl peptide, LPS group 3.56±0.51",2.12±0.64
same,EIU clinical score,[3]; [8],1.92±0.27
same,count of inflammatory cells in aqueous humor,[4]; LPS + 1 μg/μl peptide intravitreal,49.14±40.84 ×10^5 cells/ml
same,count of inflammatory cells in aqueous humor,[4]; LPS + 5 μg/μl peptide intravitreal,40.40±31.34 ×10^5 cells/ml
same,count of inflammatory cells in aqueous humor,[4]; [9],37.35±21.44 ×10^5 cells/ml
same,TNF-α in cell supernatant compared with LPS group,[1]; [10],no significant difference
same,concentration of TNF-α in cell supernatant,[1]; [11],737.00 ± 155.56 pg/mL
same,concentration of TNF-α in cell supernatant,[1]; [12],718.00 ± 79.19 pg/mL
same,IL-6 in cell supernatant compared with LPS group,[2]; [10],no significant difference
same,concentration of IL-6 in cell supernatant,[2]; [11],1385.00 ± 101.54 pg/mL
same,concentration of IL-6 in cell supernatant,[2]; [12],1355.00 ± 134.35 pg/mL
same,"viability at 24 h, 0.1 µM",[5]; 0.1 μM,96.9 ± 3.64%
same,"viability at 24 h, 1 µM",[5]; 1 μM,100 ± 2.67%
same,"viability at 24 h, 10 µM",[5]; 10 μM,98.3 ± 3.91%
same,"viability at 24 h, 100 µM",[5]; 100 μM,101 ± 4%
same,"viability at 24 h, 1000 µM",[5]; 1 mM,95.8 ± 4.92%
same,toxic effects on cells,[6],no significant toxic effects
same,water solubility,[7],good water solubility
"KQPRGEEGGPW [Derived polypeptide 2, polypeptide derived from H-RN]",TNF-α,[1],701.63 pg/mL
same,IL-6,[2],1356.46 pg/mL
"RNPKGEEGGPW [Derived polypeptide 1, polypeptide derived from H-RN]",TNF-α,[1],724.98 pg/mL
same,IL-6,[2],1365.29 pg/mL
"GPERWRGPNGE [H-GP, reference compound]",EIU clinical score,[3]; [8],3.32±0.61
same,count of inflammatory cells in aqueous humor,[4]; [9],134.66±98.23 ×10^5 cells/ml
same,TNF-α in cell supernatant compared with LPS group,"[1]; 100 μM peptide, p>0.05",no significant difference
same,IL-6 in cell supernatant compared with LPS group,"[2]; 100 μM peptide, p>0.05",no significant difference
"NPRGEEGGP [Derived polypeptide 5, polypeptide derived from H-RN]",TNF-α,[1],745.70 pg/mL
same,IL-6,[2],1395.34 pg/mL
